From paper PMC7432833, “Unusual Occurrence of Two Bona-Fide CCA-Adding Enzymes in Dictyostelium discoideum” (International Journal of Molecular Sciences, 2020)

Columns and labels:
[1] = biological target: T1, CCA1 (Dictyostelium discoideum, UniProt Q54BQ2); assay: nucleotide binding assay (supplement)
T1 construct: gene DDB_G0293504; full-length codon-optimized ORF, C-terminal His tag, pET28b(+), E. coli BL21(DE3) delta-cca
T1 sequence (Q54BQ2 1-558): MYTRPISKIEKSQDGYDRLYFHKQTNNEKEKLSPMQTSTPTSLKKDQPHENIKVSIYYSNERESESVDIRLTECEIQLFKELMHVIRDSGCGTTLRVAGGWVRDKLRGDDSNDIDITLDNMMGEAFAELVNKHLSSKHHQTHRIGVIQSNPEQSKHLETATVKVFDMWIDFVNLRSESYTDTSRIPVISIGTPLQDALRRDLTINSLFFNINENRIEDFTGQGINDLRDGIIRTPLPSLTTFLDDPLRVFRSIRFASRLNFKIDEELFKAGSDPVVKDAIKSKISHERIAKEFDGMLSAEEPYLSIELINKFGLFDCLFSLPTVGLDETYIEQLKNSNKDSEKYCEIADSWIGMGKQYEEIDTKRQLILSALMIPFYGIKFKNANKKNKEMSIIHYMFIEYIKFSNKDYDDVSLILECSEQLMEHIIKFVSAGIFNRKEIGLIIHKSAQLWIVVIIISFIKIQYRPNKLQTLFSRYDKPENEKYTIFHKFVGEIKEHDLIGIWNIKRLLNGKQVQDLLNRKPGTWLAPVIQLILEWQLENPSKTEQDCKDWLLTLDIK

[2] = biological target: T2, CCA2 (Dictyostelium discoideum, UniProt Q55BE1); assay: nucleotide binding assay (supplement)
T2 construct: gene DDB_G0271378; full-length codon-optimized ORF, C-terminal His tag, pET28b(+), E. coli BL21(DE3) delta-cca; Q/N-rich
T2 sequence (Q55BE1 1-542): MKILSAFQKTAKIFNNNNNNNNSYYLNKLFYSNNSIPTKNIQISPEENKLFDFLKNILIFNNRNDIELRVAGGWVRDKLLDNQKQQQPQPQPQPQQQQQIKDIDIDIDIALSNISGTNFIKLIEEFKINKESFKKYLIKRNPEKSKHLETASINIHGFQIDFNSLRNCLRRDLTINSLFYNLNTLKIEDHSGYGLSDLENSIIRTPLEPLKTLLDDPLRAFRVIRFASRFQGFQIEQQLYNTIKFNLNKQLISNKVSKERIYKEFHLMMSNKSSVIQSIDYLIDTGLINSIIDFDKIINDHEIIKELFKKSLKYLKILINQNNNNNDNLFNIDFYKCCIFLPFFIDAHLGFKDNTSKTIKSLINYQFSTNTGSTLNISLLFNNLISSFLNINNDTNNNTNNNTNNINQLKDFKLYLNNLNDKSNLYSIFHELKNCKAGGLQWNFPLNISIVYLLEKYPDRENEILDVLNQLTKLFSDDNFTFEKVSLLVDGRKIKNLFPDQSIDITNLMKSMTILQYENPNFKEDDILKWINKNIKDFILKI

[3] = system: T3, CCA2 (tRNA nucleotidyltransferase 2, Q/N-rich) (Dictyostelium discoideum); assay: EMSA; conditions: 6 mM Mg2+, EMSA: HEPES/KOH pH 7.6 (concentration not stated), 30 mM KCl, 6 mM MgCl2, 20 C, 10 min, 0.5 pmol tRNA, 0-5 uM enzyme, 5% native PAA gel, n=3
T3 sequence: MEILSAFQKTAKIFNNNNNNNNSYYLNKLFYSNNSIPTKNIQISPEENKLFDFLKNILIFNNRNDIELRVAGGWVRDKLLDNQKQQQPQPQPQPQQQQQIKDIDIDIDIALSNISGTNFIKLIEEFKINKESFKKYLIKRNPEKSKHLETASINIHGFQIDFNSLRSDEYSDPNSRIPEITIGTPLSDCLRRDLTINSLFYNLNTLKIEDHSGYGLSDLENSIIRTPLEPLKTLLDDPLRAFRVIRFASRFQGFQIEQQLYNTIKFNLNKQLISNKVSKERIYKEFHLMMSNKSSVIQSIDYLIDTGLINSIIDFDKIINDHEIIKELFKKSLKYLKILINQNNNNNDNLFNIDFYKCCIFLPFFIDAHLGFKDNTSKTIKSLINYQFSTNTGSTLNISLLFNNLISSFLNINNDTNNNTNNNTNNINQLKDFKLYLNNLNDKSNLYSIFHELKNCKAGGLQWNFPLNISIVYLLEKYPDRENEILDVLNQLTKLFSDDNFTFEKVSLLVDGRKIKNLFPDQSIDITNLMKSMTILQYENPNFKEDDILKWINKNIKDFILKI

Molecule | nucleotide binding assay (supplement) [1] | nucleotide binding assay (supplement) [2] | Kd [3] | Kd ([3]; tRNA pool, native tRNA modifications (isolated from cells))
Nc1ncnc2c1ncn2[C@@H]1O[C@H](COP(=O)(O)OP(=O)(O)OP(=O)(O)O)[C@@H](O)[C@H]1O [ATP] | when incubated with CTP or ATP alone, both enzymes showed an almost identical binding behavior | when incubated with CTP or ATP alone, both enzymes showed an almost identical binding behavior |  | 
Nc1ccn([C@@H]2O[C@H](COP(=O)(O)OP(=O)(O)OP(=O)(O)O)[C@@H](O)[C@H]2O)c(=O)n1 [CTP] | when incubated with CTP or ATP alone, both enzymes showed an almost identical binding behavior | when incubated with CTP or ATP alone, both enzymes showed an almost identical binding behavior |  | 
tRNAPhe-CC in vitro transcript (yeast per Fig. 5 legend) |  |  | 2300 nM | 
total in vivo tRNA-CC pool |  |  |  | 1700 nM
